Experimental data from EP0008888A1, “Beta-lactam antibacterial compounds, their preparation and pharmaceutical compositions containing them” (BEECHAM GROUP PLC, priority 1978, dated 1980).
≈ marks a conversion by molar mass, not a printed value. Like-named read-outs stand apart in the source and are kept apart here. Values belong to the molecule of their own block, whether it stands above or below them.

Assays:
[1] = tested on: Salmonella typhimurium CT10; experiment: Antibacterial activity (MIC); format: cell-based
Klebsiella aerogenes A [2] = experiment: Antibacterial activity (MIC); format: cell-based
[3] = tested on: Escherichia coli ATCC 27166; experiment: Antibacterial activity (MIC); format: cell-based
Escherichia coli 0111 [4] = experiment: Antibacterial activity (MIC); format: cell-based
[5] = tested on: Staphylococcus aureus Oxford; experiment: Antibacterial activity (MIC); format: cell-based
[6] = tested on: Branhamella catarrhalis 1502; experiment: Antibacterial activity (MIC); format: cell-based
[7] = tested on: Bacillus subtilis ATCC 6633; experiment: Antibacterial activity (MIC); format: cell-based
[8] = tested on: Streptococcus pyogenes CN10; experiment: Antibacterial activity (MIC); format: cell-based
[9] = tested on: Streptococcus pneumoniae CN33; experiment: Antibacterial activity (MIC); format: cell-based
Shigella sonnei MB11967 = experiment: Antibacterial activity (MIC); format: cell-based
Escherichia coli ESS = experiment: Antibacterial activity (MIC); format: cell-based
Citrobacter freundii E8 [10] = experiment: Antibacterial activity (MIC); format: cell-based
[11] = tested on: Escherichia coli NCTC 10418; experiment: Antibacterial activity (MIC); format: cell-based
[12] = Solution stability of an aqueous solution (uv spectrum); format: physicochemical; details: aqueous solution (ca 2 mg ml^-1) stored at 5° for 2 months
Citrobacter freundii E8 [13] = experiment: MIC in a standard test; format: cell-based
Klebsiella aerogenes A [14] = experiment: MIC in a standard test; format: cell-based
Bacillus subtilis A = experiment: MIC in a standard test; format: cell-based
[15] = tested on: Streptococcus pneumoniae CN33; experiment: MIC in a standard test; format: cell-based
Pseudomonas aeruginosa A = experiment: MIC in a standard test; format: cell-based
Escherichia coli JT39 = experiment: MIC in a standard test; format: cell-based; details: Escherichia coli, JT39
Proteus morganii I580 = experiment: MIC in a standard test; format: cell-based; details: Morganella morganii
Shigella sonnei MB 11967 = experiment: MIC in a standard test; format: cell-based; details: MB11967
Escherichia coli 0111 [16] = experiment: MIC in a standard test; format: cell-based
[17] = tested on: Staphylococcus aureus 1517; experiment: MIC in a standard test; format: cell-based
Proteus vulgaris WO91 = experiment: MIC in a standard test; format: cell-based
Proteus mirabilis C977 = experiment: MIC in a standard test; format: cell-based
Streptococcus faecalis I = experiment: MIC in a standard test; format: cell-based; details: Enterococcus faecalis
[18] = tested on: Streptococcus pyogenes CN10; experiment: MIC in a standard test; format: cell-based
[19] = tested on: Staphylococcus aureus Oxford; experiment: MIC in a standard test; format: cell-based
Enterobacter cloacoae N1 = experiment: MIC in a standard test; format: cell-based
[20] = tested on: Staphylococcus aureus Russell; experiment: MIC in a standard test; format: cell-based
[21] = tested on: Salmonella typhimurium CT10; experiment: MIC in a standard test; format: cell-based; details: Salmonella enterica
Proteus rettgeri WM16 = experiment: MIC in a standard test; format: cell-based; details: Providencia rettgeri
Serratia marcescens US20 = experiment: MIC in a standard test; format: cell-based
[22] = Salmonella enterica, TYPHIMURIUM, read-out: MIC
[23] = Klebsiella aerogenes, read-out: MIC
[24] = Escherichia coli, ATCC27166, Escherichia coli ATCC 27166, read-out: MIC
[25] = Escherichia coli, 0111, Escherichia coli 0111, read-out: MIC
[26] = Bacillus subtilis, ATCC6633, Bacillus subtilis ATCC 6633, read-out: MIC
[27] = Shigella sonnei, MB11967, Shigella sonnei MB11967, read-out: MIC
[28] = Citrobacter freundii, E8, Citrobacter freundii E8, read-out: MIC
[29] = Escherichia coli, NCTC10418, Escherichia coli NCTC 10418, read-out: MIC

Compound: CCSC1=C(C(=O)OCc2ccc([N+](=O)[O-])cc2)N2C(=O)CC2C1 (single isomer, unassigned; (-)) [(-), (-) p-Nitrobenzyl 3-ethylthio-7-oxo-1-azabicyclo[3.2.0] hept-2-ene-2-carboxylate]
MIC [1, 22]: > 50 µg/mL
MIC (Klebsiella aerogenes A [2]; [23]): 25 µg/mL (≈ 71.8 µM)
MIC [3, 24]: 25 µg/mL (≈ 71.8 µM)
MIC (Escherichia coli 0111 [4]; [25]): > 50 µg/mL
MIC ([5]; read-out: MIC): > 50 µg/mL
MIC ([6]; Branhamella catarrhalis 1502): 2.5 µg/mL (≈ 7.18 µM)
MIC [7, 26]: 50 µg/mL (≈ 144 µM)
MIC ([8]; Streptococcus pyogenes CN10): 2.5 µg/mL (≈ 7.18 µM)
MIC ([9]; Streptococcus pneumoniae CN33): 2.5 µg/mL (≈ 7.18 µM)
MIC (Shigella sonnei MB11967; [27]): > 50 µg/mL
MIC (Escherichia coli ESS): 25 µg/mL (≈ 71.8 µM)
MIC (Citrobacter freundii E8 [10]; [28]): > 50 µg/mL
MIC [11, 29]: > 50 µg/mL

solution stability [12]: without deterioration
Compound: CCSC1=C(C(=O)[O-])N2C(=O)C(CC)C2C1.[Na+] (stereo not drawn)

Compound: CCSC1=C(C(=O)OCc2ccc([N+](=O)[O-])cc2)N2C(=O)CC2C1 (racemic) [(±), p-Nitrobenzyl 3-ethylthio-7-oxo-1-azabicyclo [3,2,0]hept-2-ene-2-carboxylate]
MIC [1, 22]: 50 µg/mL (≈ 144 µM)
MIC (Klebsiella aerogenes A [2]; [23]): 25 µg/mL (≈ 71.8 µM)
MIC [3, 24]: 12.5 µg/mL (≈ 35.9 µM)
MIC (Escherichia coli 0111 [4]; [25]): > 50 µg/mL
MIC ([5]; read-out: MIC): > 50 µg/mL
MIC ([6]; Moraxella catarrhalis, 1502, Branhamella catarrhalis 1502, read-out: MIC): 1.2 µg/mL (≈ 3.44 µM)
MIC [7, 26]: 25 µg/mL (≈ 71.8 µM)
MIC ([8]; Streptococcus pyogenes, CN10, Streptococcus pyogenes CN10, read-out: MIC): 1.2 µg/mL (≈ 3.44 µM)
MIC ([9]; Streptococcus pneumoniae, CN33, Streptococcus pneumoniae CN33, read-out: MIC): 1.2 µg/mL (≈ 3.44 µM)
MIC (Shigella sonnei MB11967; [27]): > 50 µg/mL
MIC (Escherichia coli ESS; Escherichia coli, read-out: MIC): 12.5 µg/mL (≈ 35.9 µM)
MIC (Citrobacter freundii E8 [10]; [28]): 50 µg/mL (≈ 144 µM)
MIC [11, 29]: 50 µg/mL (≈ 144 µM)

Compound: CCSC1=C(C(=O)OCc2ccc([N+](=O)[O-])cc2)N2C(=O)CC2C1 (single isomer, unassigned; (+)) [(+), (+) p-Nitrobenzyl 3-ethylthio-7-oxo-1-azabicyclo[3.2.0] hept-2-ene-2-carboxylate]
MIC [1]: 50 µg/mL (≈ 144 µM)
MIC (Klebsiella aerogenes A [2]): 12.5 µg/mL (≈ 35.9 µM)
MIC ([3]; Escherichia coli ATCC 27166): 12.5 µg/mL (≈ 35.9 µM)
MIC (Escherichia coli 0111 [4]; Escherichia coli 0111): 50 µg/mL (≈ 144 µM)
MIC [5]: >50 µg/mL
MIC ([6]; Branhamella catarrhalis 1502): 0.5 µg/mL (≈ 1.44 µM)
MIC ([7]; Bacillus subtilis ATCC 6633): 25 µg/mL (≈ 71.8 µM)
MIC ([8]; Streptococcus pyogenes CN10): 1.2 µg/mL (≈ 3.44 µM)
MIC ([9]; Streptococcus pneumoniae CN33): 0.5 µg/mL (≈ 1.44 µM)
MIC (Shigella sonnei MB11967; Shigella sonnei MB11967): 50 µg/mL (≈ 144 µM)
MIC (Escherichia coli ESS): 5.0 µg/mL (≈ 14.4 µM)
MIC (Citrobacter freundii E8 [10]; Citrobacter freundii E8): 25 µg/mL (≈ 71.8 µM)
MIC ([11]; Escherichia coli NCTC 10418): 25 µg/mL (≈ 71.8 µM)

Compound: CCSC1=C(C(=O)[O-])N2C(=O)CC2C1.[Na+] (stereo not drawn) [Example 7, Sodium 3-ethylthio-7-oxo-1-azabicyclo(3,2,0)hept-2-ene-2-carboxylate]
MIC (Citrobacter freundii E8 [13]): 2.5 µg/mL
MIC (Klebsiella aerogenes A [14]): 1 µg/mL
MIC (Bacillus subtilis A): 1 µg/mL
MIC [15]: 1 µg/mL
MIC (Pseudomonas aeruginosa A): > 100 µg/mL
MIC (Escherichia coli JT39): 50 µg/mL
MIC (Proteus morganii I580): 10 µg/mL
MIC (Shigella sonnei MB 11967): 5.2 µg/mL
MIC (Escherichia coli 0111 [16]): 2.5 µg/mL
MIC [17]: > 100 µg/mL
MIC (Proteus vulgaris WO91): 50 µg/mL
MIC (Proteus mirabilis C977): 10 µg/mL
MIC (Streptococcus faecalis I): 100 µg/mL
MIC [18]: 1 µg/mL
MIC [19]: 5 µg/mL
MIC (Enterobacter cloacoae N1): 2.5 µg/mL
MIC [20]: 10 µg/mL
MIC [21]: 2.5 µg/mL
MIC (Proteus rettgeri WM16): 50 µg/mL
MIC (Serratia marcescens US20): 10 µg/mL
